system: HCV replicon cells; assay: Cell-based HCV replicon assay (replicon RNA level by real time PCR, Taqman); conditions: Hepatitis C virus, 72 h, HCV replicon cells, harvested day 3, replicon RNA by real time PCR; given as number; read-out: EC90 (μM) range
Summary of the method: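 Readout: ΔCT between NS5B replicon RNA and GAPDH by real-time RT-PCR in lysates harvested on day 3, fitted sigmoidally; EC50 at ΔCT=1, EC90 at ΔCT=3.2. Compounds tested at ten 2-fold dilutions from 25 μM to 1 μM start, 10% FBS, 0.5% DMSO.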

Structure (SMILES)	EC90
CNC(=O)OC[C@H]1C[C@@H](Nc2nc(NCC(F)(F)F)nc(C)c2-c2nc3ccccc3s2)[C@H](O)[C@@H]1O [Example 66]	0.85 µM
CCOc1cc2cc(-c3c(C)nc(NC)nc3N[C@@H]3C[C@H](CO)[C@@H](O)[C@H]3O)oc2c(C)n1 [Example 28]	0.45 µM

same assay, conditions: Hepatitis C virus, 72 h, HCV replicon cells, harvested day 3, replicon RNA by real time PCR; reported as range class; read-out: EC90 (μM) range

Structure (SMILES)	EC90
Nc1nc(Cl)c(-c2cc3cc(C(=O)N4CCOCC4)ccc3o2)c(N[C@@H]2C[C@H](CO)[C@@H](O)[C@H]2O)n1 [Example 175]	> 5 µM
COc1ccc2nc(-c3c(Cl)nc(N)nc3N[C@@H]3C[C@H](CO)[C@@H](O)[C@H]3O)sc2c1 [Example 181]	< 0.5 µM
Nc1nc(Cl)c(-c2cccs2)c(N[C@@H]2C[C@H](CO)[C@@H](O)[C@H]2O)n1 [Example 153]	> 5 µM
Nc1nc(Cl)c(-c2nc3ccc(OCc4ccccc4)cc3s2)c(N[C@@H]2C[C@H](CO)[C@@H](O)[C@H]2O)n1 [Example 199]	> 5 µM
CCNc1nc(Cl)c(-c2nc3ccccc3s2)c(N[C@@H]2C[C@H](CO)[C@@H](O)[C@H]2O)n1 [Example 412]	< 0.5 µM
Cc1nc(N)nc(N[C@@H]2C[C@H](CO)[C@@H](O)[C@H]2O)c1-c1nc2ccccc2s1 [Example 119]	< 0.5 µM
COCc1cc2cc(-c3c(Cl)nc(N)nc3N[C@@H]3C[C@H](CO)[C@@H](O)[C@H]3O)oc2c(C)n1 [Example 311]	< 0.5 µM
Nc1nc(N[C@@H]2C[C@H](CO)[C@@H](O)[C@H]2O)c(-c2ncco2)c(-c2ncco2)n1 [Example 107]	> 5 µM
Nc1nc(Cl)c(-c2nc3c(Cl)cccc3s2)c(N[C@@H]2C[C@H](CO)[C@@H](O)[C@H]2O)n1 [Example 183]	0.5 to 5 µM
Nc1nc(Cl)c(-c2cc3cc([N+](=O)[O-])cnc3o2)c(N[C@@H]2C[C@H](CO)[C@@H](O)[C@H]2O)n1 [Example 302]	0.5 to 5 µM
Cc1nc(NCC(F)F)nc(N[C@@H]2C[C@H](CO)[C@@H](O)[C@H]2O)c1-c1nc2ccccc2s1 [Example 215]	< 0.5 µM

same assay, conditions: Hepatitis C virus, 72 h, HCV replicon cells, harvested on day 3, replicon RNA by real time PCR; calculated EC90 reported as range class; read-out: EC90 (μM) range

Structure (SMILES)	EC90
Cc1nc(NCc2cc3ccccc3s2)nc(N[C@@H]2C[C@H](CO)[C@@H](O)[C@H]2O)c1-c1nc2ccccc2s1 [Example 478]	< 0.5 µM
CCOCCNc1nc(Cl)c(-c2cc3cc(CC)ncc3o2)c(N[C@@H]2C[C@H](CO)[C@@H](O)[C@H]2O)n1 [Example 512]	< 0.5 µM
Cc1nc(NCc2cc3ccccc3s2)nc(N[C@@H]2C[C@H](CO)[C@H]3OC(C)(C)O[C@H]32)c1-c1nc2ccccc2s1 [Example 475]	0.5 to 5 µM
Cc1cc2cc(-c3c(Cl)nc(NCC4CCCCC4)nc3N[C@@H]3C[C@H](CO)[C@@H](O)[C@H]3O)oc2c(C)n1 [Example 460]	< 0.5 µM
Cc1nc(NCc2ccsc2)nc(N[C@@H]2C[C@H](CO)[C@@H](O)[C@H]2O)c1-c1nc2ccccc2s1 [Example 331]	< 0.5 µM
CCc1cc2cc(-c3c(Cl)nc(NCCC(F)(F)F)nc3N[C@@H]3C[C@H](CO)[C@@H](O)[C@H]3O)oc2cn1 [Example 520]	< 0.5 µM
Cc1nc(NCCNC(=O)OCc2ccccc2)nc(N[C@@H]2C[C@H](CO)[C@H]3OC(C)(C)O[C@H]32)c1-c1nc2ccccc2s1 [Example 253]	0.5 to 5 µM
Cc1nc(NCc2ccc(C(F)(F)F)cc2)nc(N[C@@H]2C[C@H](CO)[C@H]3OC(C)(C)O[C@H]32)c1-c1nc2ccccc2s1 [Example 241]	0.5 to 5 µM
CC(C)(C)CNc1nc(Cl)c(-c2nc3ccccc3s2)c(N[C@@H]2C[C@H](CO)[C@@H](O)[C@H]2O)n1 [Example 436]	< 0.5 µM
Cc1nc(NC(C)C)nc(N[C@@H]2C[C@H](CO)[C@@H](O)[C@H]2O)c1-c1nc2ccccc2s1 [Example 427]	< 0.5 µM
CCCCCNc1nc(C)c(-c2cc3cc(C)ncc3o2)c(N[C@@H]2C[C@H](CO)[C@@H](O)[C@H]2O)n1 [Example 453]	< 0.5 µM
Cc1nc(NCC2CC2)nc(N[C@@H]2C[C@H](CO)[C@@H](O)[C@H]2O)c1-c1cc2cc(C(F)(F)F)ncc2o1 [Example 143]	0.5 to 5 µM
Cc1cccnc1CNc1nc(C)c(-c2nc3ccccc3s2)c(N[C@@H]2C[C@H](CO)[C@@H](O)[C@H]2O)n1 [Example 499]	< 0.5 µM
COc1cc(CNc2nc(C)c(-c3nc4ccccc4s3)c(N[C@@H]3C[C@H](CO)[C@H]4OC(C)(C)O[C@H]43)n2)cc(OC)c1OC [Example 710]	< 0.5 µM
CCCCCCNc1nc(C)c(-c2nc3ccccc3s2)c(N[C@@H]2C[C@H](CO)[C@@H](O)[C@H]2O)n1 [Example 455]	< 0.5 µM
COc1ccc(CNc2nc(C)c(-c3nc4ccccc4s3)c(N[C@@H]3C[C@H](CO)[C@H]4OC(C)(C)O[C@H]43)n2)cc1OC [Example 708]	< 0.5 µM
Cc1ccc(CNc2nc(C)c(-c3nc4ccccc4s3)c(N[C@@H]3C[C@H](CO)[C@@H](O)[C@H]3O)n2)cc1 [Example 490]	< 0.5 µM

same assay, conditions: Hepatitis C virus, 72 h, HCV replicon cells, replicon RNA level by real time PCR (Taqman), day 3; calculated EC90; read-out: EC90 (μM) range

Structure (SMILES)	EC90
Cc1nc(NCC(F)(F)F)nc(N[C@@H]2C[C@H](CO)[C@@H](O)[C@H]2O)c1-c1nc2ncccc2o1 [Example 2008]	0.5 to 5 µM

same assay, conditions: Hepatitis C virus, 72 h, HCV replicon cells, replicon RNA level by real time PCR (Taqman), harvested on day 3; calculated EC90 reported as range class; read-out: EC90 (μM) range

Structure (SMILES)	EC90
Cc1nc(NCC(C)(C)C)nc(N[C@@H]2C[C@H](CO)[C@@H](O)[C@H]2O)c1-c1nc2cnccc2s1 [Example 536]	< 0.5 µM
Cc1cccc(Nc2nc(C)c(-c3nc4ccccc4s3)c(N[C@@H]3C[C@H](CO)[C@@H](O)[C@H]3O)n2)c1 [Example 1046]	0.5 to 5 µM
Cc1nc(NCc2cccc(S(C)(=O)=O)c2)nc(N[C@@H]2C[C@H](CO)[C@@H](O)[C@H]2O)c1-c1nc2ccccc2s1 [Example 1225]	0.5 to 5 µM
Cc1nc(NCC(=O)O)nc(N[C@@H]2C[C@H](CO)[C@@H](O)[C@H]2O)c1-c1nc2ccccc2s1 [Example 1011]	0.5 to 5 µM
COCc1cc2cc(-c3c(C)nc(NCc4ccco4)nc3N[C@@H]3C[C@H](CO)[C@@H](O)[C@H]3O)oc2cn1 [Example 1108]	< 0.5 µM
COc1nc(C)cc2cc(-c3c(C)nc(NCC4CC4)nc3N[C@@H]3C[C@H](CO)[C@@H](O)[C@H]3O)oc12 [Example 1239]	0.5 to 5 µM
Cc1nc(N(C)Cc2ccccc2)nc(N[C@@H]2C[C@H](CO)[C@H]3OC(C)(C)O[C@H]32)c1-c1nc2ccccc2s1 [Example 1115]	> 5 µM
COc1ccc(Nc2nc(C)c(-c3nc4ccccc4s3)c(N[C@@H]3C[C@H](CO)[C@@H](O)[C@H]3O)n2)c(OC)c1 [Example 1235]	0.5 to 5 µM
Cc1nc(NCC2CC2)nc(N[C@@H]2C[C@H](CO)[C@H]3OC(C)(C)O[C@H]32)c1-c1nc2cc(OC(F)F)c(OC(F)F)cc2s1 [Example 1005]	> 5 µM
COc1cccc2sc(-c3c(C)nc(NCC4CC4)nc3N[C@@H]3C[C@H](C(C)O)[C@@H](O)[C@H]3O)nc12 (stereo partly shown) [Example 1073]	0.5 to 5 µM
COc1cc2cc(-c3c(C)nc(NCC(C)(C)C)nc3N[C@@H]3C[C@H](CO)[C@@H](O)[C@H]3O)oc2c(C)n1 [Example 1201]	0.5 to 5 µM

same assay, conditions: Hepatitis C virus, 72 h, HCV replicon cells, replicon RNA level by real time PCR, harvested day 3; read-out: EC90 (μM) range

Structure (SMILES)	EC90
Cc1nc(NCC2CC2)nc(N[C@@H]2C[C@H](C(C)O)[C@@H](O)[C@H]2O)c1-c1nc2ccccc2s1 (single isomer, unassigned) [Example 1644]	< 0.5 µM
Cc1nc(N[C@H](C)C2CC2)nc(N[C@@H]2C[C@H](CO)[C@@H](O)C2(C)O)c1-c1nc2cnccc2s1 (stereo partly shown) [Example 1384]	< 0.5 µM
CCCc1nccc2sc(-c3c(C)nc(N[C@H](C)C(F)(F)F)nc3N[C@@H]3C[C@H](CO)[C@@H](O)[C@H]3O)nc12 [Example 1380]	< 0.5 µM
CO[C@@H]1[C@H](O)[C@@H](CO)C[C@H]1Nc1nc(N[C@H](C)c2ccc(C)cc2)nc(C)c1-c1nc2cnccc2s1 [Example 1350]	< 0.5 µM
Cc1ccc([C@H](C)Nc2nc(C)c(-c3nc4cnccc4s3)c(N[C@@H]3CC[C@@H](O)[C@@]3(C)O)n2)cc1 [Example 1810]	< 0.5 µM
Cc1nc(NCC(F)(F)F)nc(N[C@@H]2C[C@H](CNS(C)(=O)=O)[C@@H](O)[C@H]2O)c1-c1nc2ccccc2s1 [Example 1507]	< 0.5 µM
COc1ccc([C@@H](C)Nc2nc(C)c(-c3nc4c(C)nccc4s3)c(N[C@@H]3C[C@H](CO)[C@@H](O)[C@H]3O)n2)cc1 [Example 1529]	< 0.5 µM
Cc1nc(NC2CC2)nc(N[C@@H]2C[C@H](CO)[C@@H](O)[C@H]2O)c1-c1nc2c(CC(C)C)nccc2s1 [Example 1537]	< 0.5 µM
Cc1nc(NC2CCC2)nc(N[C@@H]2C[C@H](CO)[C@@H](O)[C@H]2O)c1-c1nc2c(C)nccc2s1 [Example 1544]	< 0.5 µM
Cc1nc(NCC2CC2)nc(NC[C@@H]2CC2(CO)CO)c1-c1nc2ccccc2s1 [Example 1617]	> 5 µM
Cc1nc(CN)nc(N[C@@H]2C[C@H](CO)[C@@H](O)[C@H]2O)c1-c1nc2ccccc2s1 [Example 1916]	> 5 µM
Cc1nc(NCC(F)(F)F)nc(N[C@@H]2C[C@H](CO)N(C(=O)OC(C)(C)C)C2)c1-c1nc2ccccc2s1 [Example 1348]	> 5 µM
CCc1nccc2sc(-c3c(C)nc(N[C@H](C)C4CC4)nc3N[C@@H]3C[C@H](CS(C)(=O)=O)[C@@H](O)[C@H]3O)nc12 [Example 1382]	< 0.5 µM
Cc1ccc(CCNc2nc(C)c(-c3nc4ccccc4s3)c(N[C@@H]3C[C@H](CO)[C@@H](O)[C@H]3O)n2)s1 [Example 1812]	0.5 to 5 µM
Cc1nc(NCC(F)(F)F)nc(N[C@@H]2C[C@H](O)[C@@H](O)[C@H]2O)c1-c1nc2ccccc2s1 [Example 1366]	0.5 to 5 µM
Cc1ccccc1[C@H](Nc1nc(C)c(-c2nc3c(C)nccc3s2)c(N[C@@H]2C[C@H](CO)[C@@H](O)[C@H]2O)n1)C(F)(F)F [Example 1539]	< 0.5 µM

— patent publication US8697694B2, “Substituted pyridine and pyrimidine derivatives and their use in treating viral infections” (priority 2008, dated 2014)
